Read-outs that look alike come from different tables or passages of the source.
Tests used:
[1] = Liver microsomal metabolic stability, rat; format: in vitro ADME; conditions: 10 μM, 30 min
serum RBP4 = conditions: mice; cited from earlier work
RBP4 = RBP4 (Homo sapiens, UniProt P02753); experiment: RBP4 scintillation proximity assay; format: binding; conditions: for binding to RBP4 (competition binding): purified human RBP4, 10 nM 3H-retinol radioligand
[2] = Liver microsomal metabolic stability, human; format: in vitro ADME; conditions: 10 μM, 30 min
[3] = Liver microsomal metabolic stability, mouse; format: in vitro ADME; conditions: 10 μM, 30 min
[4] = lipophilic ligand efficiency: RBP4 SPA pIC50 − cLog P

LLE (RBP4; [4])	binding to RBP4 (competition binding) (RBP4)	SMILES	also measured
–	–	O=C(O)c1ccccc1NC(=O)N1CCC(c2ccccc2C(F)(F)F)CC1 [Compound 3, reference compound]	Microsomal Stability (% remaining) RLM [1]: 85 % remaining
–	–	Cc1cc(C(=O)O)nc(N2C[C@H]3CC(c4ccccc4C(F)(F)F)C[C@H]3C2)n1 (stereo partly shown) [Compound 5]	serum RBP4 lowering (serum RBP4): 90%
4.56	–	Cn1nc(C(=O)N2CCC(c3ccccc3C(F)(F)F)CC2)c2ccccc21 [Compound 12, (1-Methyl-1H-indazol-3-yl)(4-(2-(trifluoromethyl)phenyl)-piperidin-1-yl)methanone]	Microsomal Stability (% remaining) HLM [2]: 0.7 % remaining; Microsomal Stability (% remaining) RLM [1]: 0.0 % remaining; Microsomal Stability (% remaining) MLM [3]: 0.2 % remaining
3.01	–	COc1ccc2[nH]nc(C(=O)N3CCC(c4ccccc4C(F)(F)F)CC3)c2c1 [Compound 17, (5-Methoxy-1H-indazol-3-yl)(4-(2-(trifluoromethyl)phenyl)-piperidin-1-yl)methanone]	–
–	–	CC(C)n1nc(C(=O)N2CCC(c3ccccc3C(F)(F)F)CC2)c2ccc(F)cc21 [Compound 20, (6-Fluoro-1-isopropyl-1H-indazol-3-yl)(4-(2-(trifluoromethyl)-phenyl)piperidin-1-yl)methanone]	LLE (RBP4): 2.03
5.89	–	N#Cc1ccc2nnc(C(=O)N3CCC(c4c(F)cccc4C(F)(F)F)CC3)n2c1 [Compound 64, 3-(4-(2-Fluoro-6-(trifluoromethyl)phenyl)piperidine-1-carbonyl)-[1,2,4]triazolo[4,3-a]pyridine-6-carbonitrile]	–
–	weak RBP4 ligands	CC/C=C\C/C=C\C/C=C\C/C=C\C/C=C\C/C=C\CCC(=O)O [docosahexaenoic acid, reference compound]	–
–	weak RBP4 ligands	CCCCC/C=C\C/C=C\CCCCCCCC(=O)O [linoleic acid, reference compound]	–
–	weak RBP4 ligands	CCCCCCCC/C=C\CCCCCCCC(=O)O [oleic acid, reference compound]	–
–	weak RBP4 ligands	CCCCCCCCCCCCCCCC(=O)O [palmitic acid, reference compound]	–

From paper PMC6737539 (Journal of medicinal chemistry, 2019)
